Laboratory results from patent EP1021178B1, “SELENOPHENE ANTI-TUMOR AGENTS” (Purdue Research Foundation, priority 1996, dated 1997).

Assays:
Assay in all cases: NCI human tumor cell panel
Assay type in all cases: cell-based
[1] = test system: HS 578T; conditions: read-out: Log10 LC50 (converted)
Text: (§1) Considering the diversity of tumors in terms of cell type, morphology, growth rate and other cellular characteristics, the U.S. National Cancer Institute (NCI) has developed a "disease-oriented" approach to antitumor activity screening (M.R. Boyd, in "Principle of Practice of Oncology" J.T. Devita, S. Hellman, S.A. Rosenberg (Eds.) Vol. 3, PPO Update, No. 10, 1989). This in vitro prescreening system is based on the measurement of antitumor cytotoxicity against human tumor cell line panels consisting of approximately 60 cell lines of major human tumors (including leukemia and slower growing tumor cells such as lung, colon, breast, skin, kidney, etc.). The most important advantage of the new in vitro screening panels is the opportunity to identify compounds that are selectively more cytotoxic to cells of slowly growing solid tumors than to rapidly growing leukemia cells.
(§2) The cytotoxic activity of the present selenophene compounds have been measured utilizing two different assays or screens. The first screen measures the cytotoxicity against a panel of sixty different human tumor cell lines. This assay provides data regarding the general cytotoxicity of an individual compound. In particular this type of assay is useful in identifying compounds which have enhanced cytotoxic activity against slow growing tumors as compared to faster growing tumor cells such as leukemia tumor cell lines. The identification of such compounds is critical since previously identified antitumor agents have low cytotoxic activity against slower growing tumors. […] The specificity of a cytotoxic compound for tumor cell lines relative to normal cells is an important characteristic of an effective antitumor agent.
(§3) Antitumor cytotoxicity data generated from the National Cancer Institute human tumor cell panels can also be expressed in a graphic pattern (mean graph) to display differential cell growth inhibition (K.D. Paull, R.H. Shoemaker, L. Hodes, A. Monks, D.A. Scudiero, L. Rubinstein, J. Plowman and M.R. Boyd, J. Nail. Cancer Inst., 81, 1088, 1989.) In the mean graph, the arithmetic mean of the logarithm of the GI50 (50% growth inhibition), TGI (total growth inhibition) or LC50 (50% lethal concentration) values is used as an anchor point. […] The length of a bar is indicative of differential cytotoxicity against a specific type of tumor cells or tumor panels.
(§4) The antitumor cytotoxicity of the selenophene compounds tested in those in vitro assays was measured by a microculture assay using either a 3-(4,5-dimethylthiazol-2-yl)-2,5-diphenyltetrazolium bromide (MTT) or sulforhodamine B (SRB) based assay. [M.R. Boyd in "Principles and Practices of Oncology," V.T. DeVita, Jr.]. The experiments were conducted at Purdue University in 96-well microtiter plates and the cytotoxic effects of the selenophene compounds on those cells were measured by cell count using a Coulter Z.F. counter (Hialeah, FL). The results are expressed as GI50, the concentration of drug at which cell numbers are reduced to 50% of control cell culture [T.C.K. Chan, C.J. Chang, N.M. Koonchanok and R.L. Geahlen, Biochem. Biophys. Res. Commun., 193, 1152, (1993); S. Hellman and S.A. Rosenberg (Eds.), Vol. 3, PPO Updates, Number 10, (1989).]
(§5) This in vitro microculture assay has an advantage over in vivo assays in that results are obtained within a week as opposed to several months. The MTT assay is based on the production of a dark blue formazan product by dehydrogenase in the mitochondria of live tumor cells after exposure to drug for 6 days [M.C. Alley, D.A. Scudiero, A. Monks, M.L. Hursey, M.J. Czerwinski, D.L. Fine, B.J. Abbott, J.G. Mayo, R.H. Shoemaker and M.R. Boyd, Cancer Res., 48, 589, 1988]. Thus, only live cells are stained and can be measured at 570 nm. […]

[2] = test system: KM12; conditions: KM12, read-out: Log10 LC50 (converted)
Text: as §1, §2, §3, §4, §5

[3] = test system: BT-549; conditions: BT-549, read-out: Log10 LC50 (converted)
Text: as §1, §2, §3, §4, §5

[4] = test system: CCRF-CEM; conditions: read-out: Log10 LC50 (converted)
Text: as §1, §2, §3, §4, §5

[5] = test system: HCT-116; conditions: HCT-116, read-out: Log10 LC50 (converted)
Text: as §1, §2, §3, §4, §5

[6] = test system: DU-145; conditions: DU-145, read-out: Log10 LC50 (converted)
Text: as §1, §2, §3, §4, §5

[7] = test system: MDA-N; conditions: read-out: Log10 LC50 (converted)
Text: as §1, §2, §3, §4, §5

[8] = test system: LOX IMVI; conditions: read-out: Log10 LC50 (converted)
Text: as §1, §2, §3, §4, §5

[9] = test system: K-562; conditions: K562, read-out: Log10 LC50 (converted)
Text: as §1, §2, §3, §4, §5

[10] = test system: RPMI-8226; conditions: RPMI-8226, read-out: Log10 LC50 (converted)
Text: as §1, §2, §3, §4, §5

[11] = test system: HCC-2998; conditions: HCC 2998, read-out: Log10 LC50 (converted)
Text: as §1, §2, §3, §4, §5

[12] = test system: 786-0; conditions: 786-0, read-out: Log10 LC50 (converted)
Text: as §1, §2, §3, §4, §5

[13] = test system: SK-MEL-2; conditions: SK-MEL-2, read-out: Log10 LC50 (converted)
Text: as §1, §2, §3, §4, §5

[14] = test system: HOP-92; conditions: HOP-92, read-out: Log10 LC50 (converted)
Text: as §1, §2, §3, §4, §5

[15] = test system: NCI-H460; conditions: NCI-H460, read-out: Log10 LC50 (converted)
Text: as §1, §2, §3, §4, §5

[16] = test system: IGROV1; conditions: IGROV-1, read-out: Log10 LC50 (converted)
Text: as §1, §2, §3, §4, §5

[17] = test system: SR; conditions: read-out: Log10 LC50 (converted)
Text: as §1, §2, §3, §4, §5

[18] = test system: SN12C; conditions: read-out: Log10 LC50 (converted)
Text: as §1, §2, §3, §4, §5

[19] = test system: OVCAR-5; conditions: OVCAR-5, read-out: Log10 LC50 (converted)
Text: as §1, §2, §3, §4, §5

[20] = test system: HCT-15; conditions: HCT-15, read-out: Log10 LC50 (converted)
Text: as §1, §2, §3, §4, §5

[21] = test system: UACC-62; conditions: UACC-62, read-out: Log10 LC50 (converted)
Text: as §1, §2, §3, §4, §5

[22] = test system: M14; conditions: M14, read-out: Log10 LC50 (converted)
Text: as §1, §2, §3, §4, §5

Row | Structure (SMILES) | CC50 [1] [µM] | CC50 [2] [µM] | CC50 [3] [µM] | CC50 [4] [µM] | CC50 [5] [µM] | CC50 [6] [µM] | LC50 (50% lethal concentration) [7] [µM] | CC50 [8] [µM] | LC50 [9] [µM] | CC50 [10] [µM] | CC50 [11] [µM] | CC50 [12] [µM] | CC50 [13] [µM] | CC50 [14] [µM] | LC50 (concentration killing 50% of cells) [15] [µM] | CC50 [16] [µM] | CC50 [17] [µM] | CC50 [20] [µM] | CC50 [21] [µM] | CC50 [22] [µM] | other results
1 | O=Cc1ccc(-c2ccc(-c3ccc(C=O)[se]3)s2)s1 | > 100 | > 100 | > 100 | > 100 | > 100 | > 100 | > 100 | > 100 | > 100 | > 100 | > 100 | 64.6 | > 100 | > 100 | > 100 | 91.2 | > 100 | > 100 | > 100 | > 100 | CC50 [18]: > 100 µM; CC50 [19]: > 100 µM
2 | OCc1ccc(-c2ccc(-c3ccc(CO)[se]3)s2)s1 | > 100 | > 100 | > 100 | > 100 | 81.3 | > 100 | > 100 | 56.2 | 97.7 | > 100 | 44.7 | 57.5 | > 100 | > 100 | 28.8 | 28.2 | > 100 | > 100 | > 100 | > 100 | CC50 [18]: > 100 µM; CC50 [19]: > 100 µM
3 | OCc1ccc(-c2ccc(-c3ccc[se]3)s2)[se]1 | > 100 | > 100 | 87.1 | > 100 | > 100 | > 100 | > 100 | 85.1 | > 100 | > 100 | > 100 | > 100 | > 100 | > 100 | > 100 | 51.3 | > 100 | > 100 | > 100 | > 100 | CC50 [18]: > 100 µM
4 | OCc1ccc(-c2ccc(-c3ccc[se]3)[se]2)[se]1 |  | 52.5 |  | > 100 | 32.4 | 46.8 | > 100 | 37.2 | > 100 | > 100 | 53.7 | 17.4 | 69.2 | 38 | 22.9 | 12.3 | > 100 | > 100 | 67.6 | 61.7 | CC50 [19]: > 100 µM
5 | OCc1ccc(-c2ccc(-c3ccc(CO)[se]3)[se]2)[se]1 | 46.8 | 50.1 | > 100 | > 100 | > 100 | 46.8 | 74.1 | > 100 | 70.8 | > 100 | 12.6 | 70.8 | 69.2 | 55 | 81.3 | 30.2 | > 100 | 55 | 44.7 | 49 | CC50 [18]: > 100 µM; CC50 [19]: > 100 µM
6 | OCc1ccc(-c2ccc(-c3ccc(CO)s3)[se]2)s1 | > 100 | > 100 | > 100 | > 100 | > 100 | > 100 | > 100 | > 100 | > 100 | > 100 | > 100 | > 100 | > 100 | > 100 | > 100 |  | > 100 | > 100 | > 100 | > 100 | CC50 [18]: > 100 µM; CC50 [19]: > 100 µM
7 | OCc1ccc(-c2ccc(-c3ccc(CO)[se]3)s2)[se]1 | > 100 | > 100 | > 100 | > 100 | > 100 | > 100 | > 100 | > 100 | > 100 | > 100 | 2.45 | > 100 | > 100 | 0.324 | > 100 | > 100 | > 100 | > 100 | > 100 | > 100 | CC50 [18]: > 100 µM; CC50 [19]: 0.776 µM
8 | OCc1ccc(-c2ccc(-c3cccs3)[se]2)s1 | > 100 | > 100 | > 100 | > 100 | 2.95 | > 100 | > 100 | > 100 | > 100 | > 100 | 9.77 | > 100 | > 100 | > 100 | > 100 | 16.2 | > 100 | > 100 | > 100 | > 100 | CC50 [18]: > 100 µM; CC50 [19]: > 100 µM
9 | O=Cc1ccc(-c2ccc(-c3ccc[se]3)[se]2)[se]1 | 53.7 | 45.7 | 79.4 | > 100 | 38.9 | 51.3 | 64.6 | 77.6 | > 100 | > 100 | 38.9 | 43.7 | > 100 | 63.1 | 40.7 | 39.8 |  | 79.4 | 66.1 | 72.4 | CC50 [18]: 50.1 µM; CC50 [19]: 75.9 µM
